Data set [1] in a line: Dissolution assessment: solubility in FaSSIF. It is filed as physicochemical. As to the method:
An amount of Compound A (about 6 mg) and amorphous solid dispersion (equivalent to around 6 mg Compound A) were weighed into an 8 ml bottle, and 6 ml FaSSIF (Fasted state simulated intestinal fluid) was added (target concentration 1.0 mg/ml). Then the suspensions were stirred at thermomixer at 37° C. under 600 rpm 200 μL of suspensions were withdrawn at setting time (such as 5 min) and then centrifuged at 14000 rpm for 4 min. After that, 100 μL of supernatant was diluted with CAN five times to prevent precipitation, and was analyzed by HPLC.
FaSSIF was prepared by following steps: 1) Place 0.1024 g sodium hydroxide, 0.7518 g sodium dihydrogen phosphate anhydrous and 1.5470 g sodium chloride in a 250 mL volumetric flask, add about 225 mL water, and adjust the pH to 6.5 with 1N sodium hydroxide or 1N hydrochloric acid. Make up to volume (250 mL) with pure water. 2) Place and dissolve 0.4480 g SIF Powder Original with 100 mL of buffer (from step 1) in a 200 mL volumetric flask, add water to volume and mix well.

A short description of data set [2]: Stability study of Compound A and amorphous solid dispersions (total impurity level, TRS %). In kind it is physicochemical. As to the method:
The amorphous solid dispersions were stored at 4° C. (closed) or 40° C./75% RH (closed and open state). After 10 days or 4 weeks, samples were observed by camera, characterized by XRPD and analyzed by HPLC for purity as well as kinetic solubility. All the samples for closed storage conditions were put into clear glass vials with gaskets and screwed caps. All the samples for open storage conditions were put into clear glass vials with cap, while the month of vials was covered by aluminium foil with pinholes to avoid cross-contamination.
The sample number in TABLE 2 corresponds to the sample number in TABLE 1.

The subject of data set [3] is influenza virus (A/PR/8/34). The experiment in a line: In vivo influenza virus infection mouse model (survival rate, body weight change). The note with it: 5 mg/kg, oral, BALB/c mouse infected with A/PR/8/34. As to the method:
(§1) The term “therapeutically effective amount” refers to the amount or dose of an active compound or salt thereof that is sufficient to prevent development of, or alleviate to some extent, one or more of the symptoms of the disorder, disease, or condition being treated. […] In addition, the effect of Compound A on influenza virus growth in lungs of BALB/c mice infected with low infectious dose 100 pfu/mouse of A/PR/8/34 at one-day post-infection was conducted. […] Therefore, based on the results of these preliminary in vivo animal studies, it is estimated that the reasonable therapeutically effective amount of the compound of Formula (I) or a pharmaceutically acceptable salt thereof for human can be about 5-200 mg, about 5-150 mg, about 5-100 mg, about 10-80 mg, about 10-40 mg, about 10-30 mg, about 10-20 mg, about 5-10 mg, about 5-20 mg, about 20-40 mg, or about 40-80 mg. For example but not limited thereto, the therapeutically effective amount of the compound of Formula (I) or a pharmaceutically acceptable salt thereof is 5 mg, 10 mg, 15 mg, 20 mg, 25 mg, 30 mg, 35 mg, 40 mg, 45 mg, 50 mg, 55 mg, 60 mg, 65 mg, 70 mg, 75 mg, 80 mg, 85 mg, 90 mg, 95 mg, 100 mg, 105 mg, 110 mg, 115 mg, 120 mg, 125 mg, 130 mg, 135 mg, 140 mg, 145 mg, 150 mg, 155 mg, 160 mg, 165 mg, 170 mg, 175 mg, 180 mg, 185 mg, 190 mg, 195 mg, or 200 mg.

For data set [4], the system named is influenza virus A/PR/8/34. Put plainly: Influenza virus growth in lungs of infected BALB/c mice. In kind it is in vivo. The note with it: 5 and 25 mg/kg; 100 pfu/mouse A/PR/8/34; one-day post-infection. As to the method:
as §1

A short description of data set [5]: 14-day repeated-dose oral toxicity study. In kind it is in vivo. The note with it: 300 mg/kg/day. As to the method:
as §1

In brackets after ≈: the same amount, converted by molar mass.

Take `COC(=O)OCOc1c2n(ccc1=O)N([C@H]1c3ccccc3CSc3c1ccc(F)c3F)CC1(CC1)C2=O` [Compound A, [1-((11S)-7,8-difluoro(6H,11H-dibenzo[c,f]thiepin-11-yl))-4,6-dioxospiro[1,2,3,9-tetrahydropyridino[1,2-e]pyridazine-3,1′-cyclopropane]-5-yloxy]methyl methoxyformate]: the “Solubility, 5 min” value in data set [1] (FaSSIF, 37° C., 600 rpm, target concentration 1.0 mg/ml, 5 min) worked out at 4.95 µg/mL (≈ 9.16 µM). For the same compound, the “Solubility, 15 min” value in data set [1] (FaSSIF, 37° C., 600 rpm, target concentration 1.0 mg/ml, 15 min) amounted to 4.89 µg/mL (≈ 9.05 µM). In addition, the aqueous solubility entry in data set [1] (statement in words) is reported as “low aqueous solubility”. Besides, the “4° C. Closed for 4 wks TRS %” value in data set [2] (4° C., closed, 4 weeks) is given as 0.76%. Further, the “40° C./75% RH Closed for 4 wks TRS %” value in data set [2] (40° C./75% RH, closed, 4 weeks) was determined as 0.86%. Further, the “40° C./75% RH Open for 4 wks TRS %” value in data set [2] (40° C./75% RH, open, 4 weeks (cells without #)) stood at 0.82%. Moreover, the “Initial TRS %” value in data set [2] (initial, total relative substances by HPLC) came out at 0.79%. Moreover, in data set [3], the “antiviral efficacy on body weight change” value was “good antiviral efficacy” and the “antiviral efficacy on survival rate” value is recorded as “good antiviral efficacy”. Besides, the “Virus titers in lungs vs vehicle treated group” value in data set [4] is on record as “significantly lower”. Also, in data set [5], the “deaths or toxic effect” value is reported as “did not cause deaths or have toxic effect”.

The record behind these values is US20230414612A1, “PHARMACEUTICAL COMPOSITION COMPRISING A CAP-DEPENDENT ENDONUCLEASE INHIBITOR” (TaiGen Biotechnology Co., Ltd., priority 2022, published 2023).
